These molecules were tested on HBV (assay: HBV-DNA antiviral assay using HepG2.117 cells (intracellular HBV DNA by qPCR)). Conditions: Hepatitis B virus, 72 h, HBV DNA inhibition, 3 days incubation, 2% DMSO.
Assay type: cell-based, genotype D HBV
Method in brief: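 HepG2.117 cells (stable genotype D HBV, Tet-off) seeded without doxycycline, treated next day with 9-point 4-fold dilutions in 2% DMSO for 3 days at 37° C. Intracellular HBV DNA quantified by qPCR against a standard curve; viability by CellTiter-Glo ATP. EC50, EC90, CC50 from variable-slope dose-response fits versus DMSO control.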

Compound | EC50 [nM]
CC(C)Cc1cnn2c3c(c(=O)n(-c4ccc(-c5nncn5C)cc4)c12)C[C@H](C)N(C(=O)c1ccc(Br)c(Cl)c1)C3 (stereo in doubt) [Compound 68b, rac-(11S)-12-(4-bromo-3-chloro-benzoyl)-5-isobutyl-11-methyl-7-[4-(4-methyl-1,2,4-triazol-3-yl)phenyl]-2,3,7,12-tetrazatricyclo[7.4.0.0^2,6]trideca-1(9),3,5-trien-8-one] | 50 to 500
CNC(=O)c1cnc(-n2c(=O)c3c(n4ncc(Cc5ccccc5)c24)CN(C(=O)c2ccc(Br)c(C(F)(F)F)c2)[C@H](C)C3)nc1 (stereo in doubt) [Compound 69a, N-methyl-2-[rac-(11R)-5-benzyl-12-[4-bromo-3-(trifluoromethyl)benzoyl]-11-methyl-8-oxo-2,3,7,12-tetrazatricyclo[7.4.0.0^2,6]trideca-1(9),3,5-trien-7-yl]pyrimidine-5-carboxamide] | < 50
CNC(=O)c1cnc(-n2c(=O)c3c(n4ncc(Cc5ccccc5)c24)CN(C(=O)c2ccc(Br)c(C(F)(F)F)c2)[C@@H](C)C3)nc1 (stereo in doubt) [Compound 69b, N-methyl-2-[rac-(11S)-5-benzyl-12-[4-bromo-3-(trifluoromethyl)benzoyl]-11-methyl-8-oxo-2,3,7,12-tetrazatricyclo[7.4.0.0^2,6]trideca-1(9),3,5-trien-7-yl]pyrimidine-5-carboxamide] | < 50
C[C@@H]1Cc2c(n3ncc(Cc4ccccc4)c3n(-c3ccc(-n4ccc(C(F)(F)F)n4)cc3)c2=O)CN1C(=O)c1ccc(Br)c(C(F)(F)F)c1 (stereo in doubt) [Compound 70a, rac-(11R)-5-benzyl-12-[4-bromo-3-(trifluoromethyl)benzoyl]-11-methyl-7-[4-[3-(trifluoromethyl)pyrazol-1-yl]phenyl]-2,3,7,12-tetrazatricyclo[7.4.0.0^2,6]trideca-1(9),3,5-trien-8-one] | 50 to 500
C[C@H]1Cc2c(n3ncc(Cc4ccccc4)c3n(-c3ccc(-n4ccc(C(F)(F)F)n4)cc3)c2=O)CN1C(=O)c1ccc(Br)c(C(F)(F)F)c1 (stereo in doubt) [Compound 70b, rac-(11S)-5-benzyl-12-[4-bromo-3-(trifluoromethyl)benzoyl]-11-methyl-7-[4-[3-(trifluoromethyl)pyrazol-1-yl]phenyl]-2,3,7,12-tetrazatricyclo[7.4.0.0^2,6]trideca-1(9),3,5-trien-8-one] | 500 to 5000
C[C@@H]1Cc2c(n3ncc(Cc4ccccc4)c3n(-c3ccc(-c4nnn[nH]4)cc3)c2=O)CN1C(=O)c1ccc(Br)c(C(F)(F)F)c1 (stereo in doubt) [Compound 71a, rac-(11R)-5-benzyl-12-[4-bromo-3-(trifluoromethyl)benzoyl]-11-methyl-7-[4-(1H-tetrazol-5-yl)phenyl]-2,3,7,12-tetrazatricyclo[7.4.0.0^2,6]trideca-1(9),3,5-trien-8-one] | 500 to 5000
C[C@H]1Cc2c(n3ncc(Cc4ccccc4)c3n(-c3ccc(-c4nnn[nH]4)cc3)c2=O)CN1C(=O)c1ccc(Br)c(C(F)(F)F)c1 (stereo in doubt) [Compound 71b, rac-(11S)-5-benzyl-12-[4-bromo-3-(trifluoromethyl)benzoyl]-11-methyl-7-[4-(1H-tetrazol-5-yl)phenyl]-2,3,7,12-tetrazatricyclo[7.4.0.0^2,6]trideca-1(9),3,5-trien-8-one] | > 5000
C[C@@H]1Cc2c(n3ncc(Cc4ccccc4)c3n(-c3ccc4c(c3)nnn4C)c2=O)CN1C(=O)c1ccc(Br)c(C(F)(F)F)c1 (stereo in doubt) [Compound 72a, rac-(11R)-5-benzyl-12-[4-bromo-3-(trifluoromethyl)benzoyl]-11-methyl-7-(1-methylbenzotriazol-5-yl)-2,3,7,12-tetrazatricyclo[7.4.0.0^2,6]trideca-1(9),3,5-trien-8-one] | < 50
C[C@H]1Cc2c(n3ncc(Cc4ccccc4)c3n(-c3ccc4c(c3)nnn4C)c2=O)CN1C(=O)c1ccc(Br)c(C(F)(F)F)c1 (stereo in doubt) [Compound 72b, rac-(11S)-5-benzyl-12-[4-bromo-3-(trifluoromethyl)benzoyl]-11-methyl-7-(1-methylbenzotriazol-5-yl)-2,3,7,12-tetrazatricyclo[7.4.0.0^2,6]trideca-1(9),3,5-trien-8-one] | < 50
CNC(=O)c1cnc(-n2c(=O)c3c(n4ncc(Cc5ccccc5)c24)CN(C(=O)c2ccc(Br)c(C(F)(F)F)c2)[C@H](C)C3)cn1 (stereo in doubt) [Compound 73a, N-methyl-5-[rac-(11R)-5-benzyl-12-[4-bromo-3-(trifluoromethyl)benzoyl]-11-methyl-8-oxo-2,3,7,12-tetrazatricyclo[7.4.0.0^2,6]trideca-1(9),3,5-trien-7-yl]pyrazine-2-carboxamide] | < 50
CNC(=O)c1cnc(-n2c(=O)c3c(n4ncc(Cc5ccccc5)c24)CN(C(=O)c2ccc(Br)c(C(F)(F)F)c2)[C@@H](C)C3)cn1 (stereo in doubt) [Compound 73b, N-methyl-5-[rac-(11S)-5-benzyl-12-[4-bromo-3-(trifluoromethyl)benzoyl]-11-methyl-8-oxo-2,3,7,12-tetrazatricyclo[7.4.0.0^2,6]trideca-1(9),3,5-trien-7-yl]pyrazine-2-carboxamide] | < 50
C[C@@H]1Cc2c(n3ncc(Cc4ccccc4)c3n(-c3ccc(-c4nnc(C(F)(F)F)[nH]4)cc3)c2=O)CN1C(=O)c1ccc(Br)c(C(F)(F)F)c1 (stereo in doubt) [Compound 74a, rac-(11R)-5-benzyl-12-[4-bromo-3-(trifluoromethyl)benzoyl]-11-methyl-7-[4-[5-(trifluoromethyl)-4H-1,2,4-triazol-3-yl]phenyl]-2,3,7,12-tetrazatricyclo[7.4.0.0^2,6]trideca-1(9),3,5-trien-8-one] | < 50
C[C@H]1Cc2c(n3ncc(Cc4ccccc4)c3n(-c3ccc(-c4nnc(C(F)(F)F)[nH]4)cc3)c2=O)CN1C(=O)c1ccc(Br)c(C(F)(F)F)c1 (stereo in doubt) [Compound 74b, rac-(11S)-5-benzyl-12-[4-bromo-3-(trifluoromethyl)benzoyl]-11-methyl-7-[4-[5-(trifluoromethyl)-4H-1,2,4-triazol-3-yl]phenyl]-2,3,7,12-tetrazatricyclo[7.4.0.0^2,6]trideca-1(9),3,5-trien-8-one] | 50 to 500
Cc1nn[nH]c1-c1ccc(-n2c(=O)c3c(n4ncc(CC5CC5)c24)CN(C(=O)c2ccc(Br)c(C(F)(F)F)c2)[C@H](C)C3)cc1 (stereo in doubt) [Compound 75a, rac-(11R)-12-[4-bromo-3-(trifluoromethyl)benzoyl]-5-(cyclopropylmethyl)-11-methyl-7-[4-(4-methyl-1H-triazol-5-yl)phenyl]-2,3,7,12-tetrazatricyclo[7.4.0.0^2,6]trideca-1(9),3,5-trien-8-one] | < 50
Cc1nn[nH]c1-c1ccc(-n2c(=O)c3c(n4ncc(CC5CC5)c24)CN(C(=O)c2ccc(Br)c(C(F)(F)F)c2)[C@@H](C)C3)cc1 (stereo in doubt) [Compound 75b, rac-(11S)-12-[4-bromo-3-(trifluoromethyl)benzoyl]-5-(cyclopropylmethyl)-11-methyl-7-[4-(4-methyl-1H-triazol-5-yl)phenyl]-2,3,7,12-tetrazatricyclo[7.4.0.0^2,6]trideca-1(9),3,5-trien-8-one] | 50 to 500
Cc1nn[nH]c1-c1ccc(-n2c(=O)c3c(n4ncc(CC5CCC5)c24)CN(C(=O)c2ccc(Br)c(C(F)(F)F)c2)[C@H](C)C3)cc1 (stereo in doubt) [Compound 76a, rac-(11R)-12-[4-bromo-3-(trifluoromethyl)benzoyl]-5-(cyclobutylmethyl)-11-methyl-7-[4-(4-methyl-1H-triazol-5-yl)phenyl]-2,3,7,12-tetrazatricyclo[7.4.0.0^2,6]trideca-1(9),3,5-trien-8-one] | < 50
Cc1nn[nH]c1-c1ccc(-n2c(=O)c3c(n4ncc(CC5CCC5)c24)CN(C(=O)c2ccc(Br)c(C(F)(F)F)c2)[C@@H](C)C3)cc1 (stereo in doubt) [Compound 76b, rac-(11S)-12-[4-bromo-3-(trifluoromethyl)benzoyl]-5-(cyclobutylmethyl)-11-methyl-7-[4-(4-methyl-1H-triazol-5-yl)phenyl]-2,3,7,12-tetrazatricyclo[7.4.0.0^2,6]trideca-1(9),3,5-trien-8-one] | 50 to 500
CNC(=O)c1cc(-n2c(=O)c3c(n4ncc(CC(C)C)c24)CN(C(=O)c2ccc(Br)c(C(F)(F)F)c2)[C@H](C)C3)nn1C (stereo in doubt) [Compound 77a, N,2-dimethyl-5-[rac-(11R)-12-[4-bromo-3-(trifluoromethyl)benzoyl]-5-isobutyl-11-methyl-8-oxo-2,3,7,12-tetrazatricyclo[7.4.0.0^2,6]trideca-1(9),3,5-trien-7-yl]pyrazole-3-carboxamide] | < 50
CNC(=O)c1cc(-n2c(=O)c3c(n4ncc(CC(C)C)c24)CN(C(=O)c2ccc(Br)c(C(F)(F)F)c2)[C@@H](C)C3)nn1C (stereo in doubt) [Compound 77b, N,2-dimethyl-5-[rac-(11S)-12-[4-bromo-3-(trifluoromethyl)benzoyl]-5-isobutyl-11-methyl-8-oxo-2,3,7,12-tetrazatricyclo[7.4.0.0^2,6]trideca-1(9),3,5-trien-7-yl]pyrazole-3-carboxamide] | < 50
C#CCc1cnn2c3c(c(=O)n(-c4ccc(C(=O)NC)cc4)c12)C[C@@H](C)N(C(=O)c1ccc(Br)c(C(F)(F)F)c1)C3 (stereo in doubt) [Compound 78a, N-methyl-4-[rac-(11R)-12-[4-bromo-3-(trifluoromethyl)benzoyl]-11-methyl-8-oxo-5-prop-2-ynyl-2,3,7,12-tetrazatricyclo[7.4.0.0^2,6]trideca-1 (9),3,5-trien-7-yl]benzamide] | < 50
